From PubChem BioAssay (NCI)
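Growth conditions: 96-well plates. Treatment: test compound, 48 hours, 5 concentrations. Analysis: linear interpolation between bracketing concentrations; unreached endpoints set to highest concentration. GI50 = concentration required for 50% inhibition of growth. Definition used: TGI = concentration required for complete inhibition of growth.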

What was measured:
Assay in all cases: NCI-60 cell line screen, 48 h; in the data active = GI50 below about 0.43 µM; inactive = the rest
OVCAR-4 ovarian = system: OVCAR-4 ovarian
U251 CNS = system: U251 CNS
SK-OV-3 ovarian = system: SK-OV-3 ovarian
SF-539 CNS = system: SF-539 CNS
OVCAR-3 ovarian = system: OVCAR-3 ovarian
LOX IMVI melanoma = system: LOX IMVI melanoma
HT29 colon = system: HT29 colon
RXF 393 renal = system: RXF 393 renal
HOP-62 NSCLC = system: HOP-62 NSCLC
HOP-92 NSCLC = system: HOP-92 NSCLC
T-47D breast = system: T-47D breast
A549 NSCLC = system: A549 NSCLC
SN12C renal = system: SN12C renal
DU-145 prostate = system: DU-145 prostate
CAKI-1 renal = system: CAKI-1 renal
KM12 colon = system: KM12 colon
NCI-H226 lung = system: NCI-H226 lung
A498 renal = system: A498 renal
CCRF-CEM leukemia = system: CCRF-CEM leukemia
SK-MEL-5 melanoma = system: SK-MEL-5 melanoma
COLO 205 colon = system: COLO 205 colon
OVCAR-8 ovarian = system: OVCAR-8 ovarian
ACHN renal = system: ACHN renal
HS 578T breast = system: HS 578T breast
EKVX NSCLC = system: EKVX NSCLC
MCF7 breast = system: MCF7 breast
HCC-2998 colon = system: HCC-2998 colon

Clc1ccc2oc3c(NCCCn4ccnc4)c4ccccc4nc3c2c1
28.2 µM: TGI (SF-539 CNS)
37.7 µM: TGI (COLO 205 colon)
inactive: GI50 (U251 CNS) 26.5 µM | GI50 (SK-OV-3 ovarian) > 100 µM | GI50 (SF-539 CNS) 12.8 µM | GI50 (OVCAR-3 ovarian) 23.8 µM | GI50 (LOX IMVI melanoma) 10.4 µM | GI50 (HT29 colon) 6.14 µM | GI50 (RXF 393 renal) 4.65 µM | GI50 (HOP-62 NSCLC) 16.6 µM | GI50 (HOP-92 NSCLC) 1.78 µM | GI50 (T-47D breast) 36 µM | GI50 (A549 NSCLC) 34.6 µM | GI50 (SN12C renal) 9.75 µM | GI50 (DU-145 prostate) 23.3 µM | GI50 (CAKI-1 renal) 11.4 µM | GI50 (KM12 colon) 15.4 µM | GI50 (NCI-H226 lung) 26.8 µM | GI50 (A498 renal) > 100 µM | GI50 (CCRF-CEM leukemia) 8.66 µM | GI50 (SK-MEL-5 melanoma) 80.6 µM | GI50 (COLO 205 colon) 10.9 µM | GI50 (OVCAR-8 ovarian) 12.7 µM | GI50 (ACHN renal) 4.84 µM | GI50 (HS 578T breast) 22.1 µM | GI50 (EKVX NSCLC) 51.7 µM | GI50 (MCF7 breast) 16.1 µM | GI50 (HCC-2998 colon) 12.7 µM
> 100 µM: TGI (U251 CNS) | TGI (SK-OV-3 ovarian) | TGI (OVCAR-3 ovarian) | TGI (HOP-62 NSCLC) | TGI (T-47D breast) | TGI (A549 NSCLC) | TGI (SN12C renal) | TGI (DU-145 prostate) | TGI (CAKI-1 renal) | TGI (KM12 colon) | TGI (NCI-H226 lung) | TGI (A498 renal) | TGI (CCRF-CEM leukemia) | TGI (SK-MEL-5 melanoma) | TGI (OVCAR-8 ovarian) | TGI (ACHN renal) | TGI (HS 578T breast) | TGI (EKVX NSCLC) | TGI (MCF7 breast) | TGI (HCC-2998 colon)
23 µM: TGI (RXF 393 renal)
41.2 µM: TGI (OVCAR-4 ovarian)
39.1 µM: TGI (LOX IMVI melanoma)
22.7 µM: TGI (HOP-92 NSCLC)
23.6 µM: TGI (HT29 colon)
